Test [1] concerns mice subjected to fetal reprogramming. Briefly: Treadmill endurance test of mice subjected to fetal reprogramming. The format is in vivo. How it is done:
Before the experiment, mice were exercised for 5 minutes at a speed of 7 meters/min for two days so as to be adapted to exercising equipment. On day 3, the main experiment was conducted. As for the method for experiment, the mice were made to run at a speed of 10 meter/min for 60 minutes, and after that, the speed was increased at 1 meter/min once every 15 minutes until the maximum speed reaches 15 meters/min. As for the male mice, the running time was increased by 2.9 fold ([…], P<0.0001, n=6) and the running distance was increased by 3.0 fold (9927±1168 versus 3303±394 m, P<0.0001) in the PPAR δ agonist (CMDD1111)-administered mouse group than the control mouse group.
The Experiment using pregnant C57BL/6 mice was conducted in order to verify an endurance enhancement effect by fetal reprogramming of CMDD1226. […]
The experiment for verifying the fetal reprogramming effect of GW501516 and determining the optimum administration period thereof was conducted. The experiment method was shown in FIG. 1, and the experiment was conducted with respect to three kinds of administration periods (gestation period, lactation period, and both of gestation and lactation periods). As the experiment result, the group administered with PPAR δ agonist only during the gestation period had 2.6-fold and 3.2-fold increases in the running time and the running distance, respectively, and the group administered with PPAR δ agonist only during the lactation period had 2.4-fold and 3.0-fold increases in the running time and the running distance, respectively, as compared with the control group. The group administered with PPAR δ agonist during both the gestation and lactation periods had the most obvious increase in endurance, and had 5.1-fold and 6.6-fold increases as compared with the control group (FIG. 22).
The animal test was conducted in order to verify the muscle endurance enhancement and muscular function improvement effects of the material according to the present invention. […] […] The test using a treadmill was conducted in order to confirm the effect of this muscular fiber change on muscle endurance enhancement and muscular function improvement.

Test [2] concerns the target T1, hPPARa (Homo sapiens, UniProt Q07869).
T1 construct: expressed in transfected cells; host or cells: CV-1 cells
T1 sequence (Q07869 1-468): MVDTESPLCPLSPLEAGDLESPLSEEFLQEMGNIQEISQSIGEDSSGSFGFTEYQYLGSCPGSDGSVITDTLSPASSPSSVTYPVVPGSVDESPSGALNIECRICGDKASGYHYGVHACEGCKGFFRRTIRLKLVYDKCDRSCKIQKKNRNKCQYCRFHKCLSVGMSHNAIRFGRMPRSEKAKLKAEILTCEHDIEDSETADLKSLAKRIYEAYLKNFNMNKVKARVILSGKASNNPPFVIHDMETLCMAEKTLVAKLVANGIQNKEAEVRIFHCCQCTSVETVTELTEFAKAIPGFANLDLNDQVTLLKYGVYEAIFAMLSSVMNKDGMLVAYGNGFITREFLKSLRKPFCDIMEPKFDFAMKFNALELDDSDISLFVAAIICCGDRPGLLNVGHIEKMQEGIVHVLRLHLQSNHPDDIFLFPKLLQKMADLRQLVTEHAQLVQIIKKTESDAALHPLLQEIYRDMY
Briefly: Transfection assay in CV-1 cells, hPPARa. The format is cell-based. The settings on record: luciferase reporter. How it is done:
(§1) This assay was conducted by using CV-1 cells. The cells were cultured on a 96-well plate with a DMEM medium containing 10% FBS, DBS (delipidated), and 1% penicillin/streptomycin in 37° C. of an incubator 5% of carbon dioxide. Test was conducted in four stages of cell inoculation, transfection, treatment with the developed material, and result confirmation. The CV-1 cells were inoculated on the 96-well plate at a cell density at 5,000 cells/well, and after 24 hours, transfection was performed. PPARs plasmid DNA, reporter DNA, and β-galactosidase DNA were mixed with a transfection reagent, and then used to treat the cells. The developed material was dissolved in dimethylsulfoxide (DMSO), and then was used to treat the cells by using media at various concentrations. After 24 hours of culturing in an incubator, the cells were lysed with a lysis buffer and luciferase activity and β-galactosidase activity were measured using a luminometer and a microplate reader. The measured luciferase value was calibrated with the β-galactosidase value, and this value was depicted on a graph and EC50 was determined.

Test [3] concerns the target T2, hPPAR δ (Homo sapiens, UniProt Q03181).
T2 construct: expressed in transfected cells; host or cells: CV-1 cells
T2 sequence (Q03181 1-441): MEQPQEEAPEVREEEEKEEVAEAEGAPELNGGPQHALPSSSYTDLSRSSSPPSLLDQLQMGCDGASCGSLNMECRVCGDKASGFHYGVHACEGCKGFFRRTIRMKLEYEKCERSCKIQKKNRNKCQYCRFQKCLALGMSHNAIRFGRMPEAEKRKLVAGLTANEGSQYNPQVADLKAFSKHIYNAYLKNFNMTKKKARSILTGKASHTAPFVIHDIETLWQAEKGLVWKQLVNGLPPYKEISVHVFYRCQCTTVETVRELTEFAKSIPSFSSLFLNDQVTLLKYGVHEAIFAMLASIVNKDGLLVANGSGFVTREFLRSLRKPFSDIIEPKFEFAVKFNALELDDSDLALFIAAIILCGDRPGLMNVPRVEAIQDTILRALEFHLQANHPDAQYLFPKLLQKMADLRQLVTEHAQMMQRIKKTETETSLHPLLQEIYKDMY
The test is described as follows: Transfection assay in CV-1 cells, hPPAR δ. The format is cell-based. As to conditions: luciferase reporter. Here is the method:
as §1

Test [4] has as its target T3, hPPARg (Homo sapiens, UniProt P37231).
T3 construct: expressed in transfected cells; host or cells: CV-1 cells
T3 sequence (P37231 1-505): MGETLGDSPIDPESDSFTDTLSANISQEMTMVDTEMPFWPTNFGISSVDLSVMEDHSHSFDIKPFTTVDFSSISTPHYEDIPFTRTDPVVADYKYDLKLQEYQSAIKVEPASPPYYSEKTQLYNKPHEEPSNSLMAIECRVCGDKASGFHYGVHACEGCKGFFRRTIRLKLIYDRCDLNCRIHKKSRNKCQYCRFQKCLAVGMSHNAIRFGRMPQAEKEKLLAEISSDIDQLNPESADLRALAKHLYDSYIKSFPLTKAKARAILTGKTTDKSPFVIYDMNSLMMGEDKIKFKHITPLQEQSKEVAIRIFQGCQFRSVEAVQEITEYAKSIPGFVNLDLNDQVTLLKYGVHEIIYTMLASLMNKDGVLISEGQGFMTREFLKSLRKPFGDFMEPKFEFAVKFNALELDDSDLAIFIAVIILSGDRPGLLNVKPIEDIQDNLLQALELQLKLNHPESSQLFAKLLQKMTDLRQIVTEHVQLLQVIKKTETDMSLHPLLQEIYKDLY
The test is described as follows: Transfection assay in CV-1 cells, hPPARg. The format is cell-based. The settings on record: luciferase reporter. Here is the method:
as §1
On the technique in general: In a reporter assay the amount or activity of a reporter protein is the signal.

Test [5] relates to HDL in serum. Briefly: High-density lipoprotein cholesterol (HDL) in serum. The class given is in vivo. The settings on record: mice fed 10% fat feedstuff over 6 weeks. The text has this:
High-density lipoprotein cholesterol (HDL) has been known to play an important role in treating lipid metabolic disorders such as arteriosclerosis and hyperlipidemia while lowering the cholesterol level of an epidermal cell and mitigating an inflammatory reaction. Serum was separated from the mice fed over a 6-week period of feedstuff containing 10% fat in order to confirm the high-density cholesterol increase effect of Compounds 5 and 9, which were the developed materials of the present invention.

Test [6] deals with slow muscle fibers and endurance. As to conditions: cited from earlier work.
[7] abbreviates: C57BL/6, maternal 10 mg/kg/day gestation and lactation, 7-week old.
[8] abbreviates: administered during both gestation and lactation periods.
Setting [9] is: administered only during the gestation period.
Where [10] appears, read: administered only during the lactation period.

Turning to `Cc1cc(SC(Cc2c(F)cccc2Cl)c2sc(-c3ccc(C(F)(F)F)cc3)nc2C)ccc1OCC(=O)O` (stereo not drawn) [CMDD1112], the endurance enhancement effect result in test [1] (1 mg/kg/day) and in test [1] (2 mg/kg/day) was “not exhibited” each time. Further, the running distance enhancement in test [1] (5 mg/kg/day) is 1.5 fold. Further, the running time enhancement in test [1] (5 mg/kg/day) is reported as 1.4 fold.
Take `Cc1cc([Se]C(Cc2ccccc2)c2sc(-c3ccc(C(F)(F)F)cc3)nc2C)ccc1OCC(=O)O` (stereo not drawn) [CMDD1226]: in test [1] (setting [7]), the “increase in the running distance versus control” value stood at 2.0 fold and the “increase in the running time versus control” value is listed as 1.9 fold.
For `Cc1cc(SC(Cc2ccc(-c3cc(F)c(F)c(F)c3)cc2)c2sc(-c3ccc(C(F)(F)F)cc3)nc2C)ccc1OCC(=O)O` (stereo not drawn) [Compound 13], in test [2], the “EC50 hPPARa” value is “ia”. The EC50 (commonly the concentration that produces a half-maximal response) in test [3] was determined as 8.8 nM. The “EC50 hPPARg” value in test [4] is reported as “ia”.
For `Cc1cc(SC(Cc2ccc(-c3ccc(C(F)(F)F)cc3)cc2)c2sc(-c3ccc(C(F)(F)F)cc3)nc2C)ccc1OCC(=O)O` (stereo not drawn) [Compound 17], the “EC50 hPPARa” value in test [2] is reported as “ia”. In test [3], the EC50 worked out at 6.4 nM. Moreover, in test [4], the “EC50 hPPARg” value is on record as “ia”.
`Cc1cc(SC(Cc2ccc(-c3ccc(C(F)(F)F)cc3)nc2)c2sc(-c3ccc(C(F)(F)F)cc3)nc2C)ccc1OCC(=O)O` (stereo not drawn) [Compound 21]: the “EC50 hPPARa” value in test [2] was “ia”. In test [3], this compound came in with an EC50 of 10.6 nM. Further, the “EC50 hPPARg” value in test [4] is reported as “ia”.
Turning to `Cc1cc(SC(Cc2ccc(-c3cccc(C(F)(F)F)c3)cc2)c2sc(-c3ccc(C(F)(F)F)cc3)nc2C)ccc1OCC(=O)O` (stereo not drawn) [Compound 25], the “EC50 hPPARa” value in test [2] is listed as “ia”. A half-maximal response in test [3] (EC50) required 6.1 nM. Further, the “EC50 hPPARg” value in test [4] is given as “ia”.
On to `CCOC(=O)COc1ccc(SC(Cc2ccc(-c3ccc(F)c(Cl)c3)cc2)c2sc(-c3ccc(C(F)(F)F)cc3)nc2C)cc1C` (stereo not drawn) [Compound 28], for which the “EC50 hPPARa” value in test [2] is reported as “ia”. This compound also displayed an EC50 in test [3] of 4.6 nM. In test [4], the “EC50 hPPARg” value is given as “ia”.
As to `Cc1cc(SC(Cc2cc(-c3ccc(F)cc3)no2)c2sc(-c3ccc(C(F)(F)F)cc3)nc2C)ccc1OCC(=O)O` (stereo not drawn) [Compound 33], the “EC50 hPPARa” value in test [2] was “ia”. This compound also showed an EC50 in test [3] of 41.4 nM. The “EC50 hPPARg” value in test [4] was “ia”.
As for `Cc1cc(SCc2sc(-c3ccc(C(F)(F)F)cc3)nc2C)ccc1OCC(=O)O` [GW501516, reference compound], in test [5], the “HDL increase in serum” value is reported as 29%. Also, the “increase in the running distance versus control” value in test [1] (setting [8]) was found to be 6.6 fold; in test [1] (setting [9]), 3.2 fold; in test [1] (setting [10]), 3.0 fold. Also, the entries for the “increase in the running time versus control” value in test [1] (setting [8]), in test [1] (setting [9]) and in test [1] (setting [10]) were 5.1 fold, 2.6 fold and 2.4 fold, respectively. Moreover, the “improvement in slow muscle fibers and endurance” value in test [6] (administration alone to an adult) is “did not show improvement”. Further, the “slow muscle fibers and endurance” value in test [6] (simultaneous combination of exercise and administration) was “generated slow muscle fibers and enhanced endurance”.
